This is an account of results in article PMC9457600, “Synthesis, Leishmanicidal, Trypanocidal, Antiproliferative Assay and Apoptotic Induction of (2-Phenoxypyridin-3-yl)naphthalene-1(2H)-one Derivatives” (Molecules, 2022).

Series [1] deals with epimastigotes of Trypanosoma cruzi strain MHOM/VE/92/YBM. As to the kind of experiment: MTT viability of T. cruzi epimastigotes. It is filed as cell-based. The settings on record: for EC50: 72 h, epimastigotes.
Another series deals with VERO cells. Nature of the series: MTT cytotoxicity on VERO cells. It is filed as cell-based, African green monkey. The settings on record: Chlorocebus sabaeus, 72 h. On the procedure: (§1) Vero cells were derived from the kidney of an African green monkey, cells were maintained in Dulbecco’s Modified Eagle’s Medium (DMEM), supplemented with 10% heat-inactivated FBS and penicillin-streptomycin solution 1% at 37 °C, 5% CO2 atmosphere and > 95% humidity. We evaluated through a colorimetric method the effect of compounds 8–23 on the promastigotes of L. brasiliensis. Briefly, 96-well plates were used, where 2 × 10^6 parasites/mL were seeded. A concentration of 50 μM was used for each compound and an incubation time of 96 h at 29 °C. 3-(4,5-dimethylthiazol-2-yl)-2,5-diphenyl tetrazolium bromide (MTT) 1 μg/mL was added and incubated in darkness for 4 h, acidic isopropanol (4N) was added and the plate was read at 570 nm in a spectrophotometer Synergy HT (Biotek). Miltefosine was used as a reference drug. The EC50 calculation of the selected compound was performed using growth curves. Direct counting was used to monitor the proliferation of parasites, three independent experiments were performed for each concentration of the compounds evaluated. The in vitro evaluations of compounds toxicity by MTT in VERO and BMDM cells follow a methodology described above with some modifications. The selectivity index was calculated with SI = CC50/EC50, where CC50 was the maximum concentration range of compounds 10, 21–23 used to evaluate cytotoxicity in VERO and BMDM cells. The trypanocidal activity of compounds 8–23 was evaluated on the viability of T. cruzi epimastigotes through a colorimetric method adapted with minor modifications. 2 × 10^6 parasites/mL were seeded in a 96-well plate, adding 50 μM of each derivative dissolved in DMSO (final concentration remained below 1%). The plate was incubated for 96 h at 29 °C. Then, 1 μg/mL of 3-(4,5-dimethylthiazol-2-yl)-2,5-diphenyl tetrazolium bromide (MTT) was added and incubated in darkness for 4 h. After this time, acidic isopropanol (4N) was added and the plate was read at 570 nm in a spectrophotometer Synergy HT (Biotek). Benznidazole was used as a reference drug. The in vitro evaluations of compounds toxicity by MTT in VERO and BMDM cells follow a methodology described above with some modifications. Cells were counted in suspension and seeded at 20 × 10^3 cells/well. The test was carried out in triplicate on 96-well microplates in different concentrations: 50 μM, 100 μM, 200 μM and 300 μM, untreated cells and reference drug (benznidazole) controls.

For series [2], the system named is promastigotes of Leishmania (V.) braziliensis strain MHOM/CO/87/UA301. As to the kind of experiment: MTT viability of L. braziliensis promastigotes. It is filed as cell-based.
Protocol: Promastigotes of Leishmania (V.) braziliensis strain MHOM/CO/87/UA301 were isolated from footpad lesions in Balb/C mice previously infected. In the process of maintenance and differentiation of the parasites, the LTI medium (tryptose 15 g/L, yeast extract 5 g/L, liver extract 2 g/L, hemin-NaOH 0.02 g/L, glucose 4 g/L, NaCl 9 g/L, KCl 0.4 g/L Na2HPO4, 7.5 g/L at pH 7.4) supplemented with 10% fetal calf serum and maintained at 29 °C was used.
Briefly, 96-well plates were used, where 2 × 10^6 parasites/mL were seeded. A concentration of 50 μM was used for each compound and an incubation time of 96 h at 29 °C. 3-(4,5-dimethylthiazol-2-yl)-2,5-diphenyl tetrazolium bromide (MTT) 1 μg/mL was added and incubated in darkness for 4 h, acidic isopropanol (4N) was added and the plate was read at 570 nm in a spectrophotometer Synergy HT (Biotek). Miltefosine was used as a reference drug. The EC50 calculation of the selected compound was performed using growth curves. Direct counting was used to monitor the proliferation of parasites, three independent experiments were performed for each concentration of the compounds evaluated. The in vitro evaluations of compounds toxicity by MTT in VERO and BMDM cells follow a methodology described above with some modifications [60].
The subject of a further series is HCT116p53−/−. As to the kind of experiment: MTS antiproliferative assay HCT116p53-/-. It counts as cell-based. The settings on record: Homo sapiens; 72 h of incubation. An excerpt: (§2) The cell lines used were acquired from the American Type Culture Collection (ATCC), CCRF-CEM (T lymphoblastic leukemia), K562 ([…]), U2OS (osteosarcoma), HCT116 (colon carcinoma), A549 (lung adenocarcinoma) and HCT116p53−/− (HCT116 cell line mutated in p53) Horizon Discovery Ltd., (Waterbeach, Cambridge, United Kingdom).
(§3) In our laboratory, IMTM, we generated the daunorubicin-resistant subline of CCRF-CEM cells (CEM-DNR bulk) and paclitaxel-resistant subline K562-TAX, as described previously. […] Both ABC transporters are involved in drug resistance. As a control, human fibroblasts MRC-5 and BJ cell lines were used. […] Adherent cells were passaged using PBS containing 0.25% trypsin plus 0.01% EDTA (ethylenediamine tetraacetic acid) every 2–3 days.
(§4) The antiproliferative activity of compounds was determined using a standard 3-(4,5-dimethylthiazol-2yl)-5-(3-carboxymethoxyphenyl)-2-(4-sulfophenyl)-2H-tetrazolium (MTS) reduction assay on a robotic high throughput screening platform (HighResBio, Boston, MA, USA) following treatment of cells for 3–7 days. The IC50 values were calculated from the appropriate dose–response curves with Dotmatics software (San Diego, CA, USA).
Background: Tetrazolium dyes change colour on reduction, which living cells bring about.

A further series concerns BJ. As to the kind of experiment: MTS assay on non-malignant BJ. It is filed as cell-based. The following applies: noncancerous human cell line. On the procedure:
as §3, §4

The test system of another series is MRC-5. Nature of the series: MTS assay on non-malignant MRC-5. It counts as cell-based. The settings on record: MRC5; noncancerous human cell line. On the procedure:
as §3, §4

For a further series, the system named is A549. Nature of the series: MTS antiproliferative assay A549. It is filed as cell-based, human. The following applies: Homo sapiens, A549, 72 h, 72 h of incubation.
Text: as §2, §3, §4

The subject of the next series is K562-TAX. Nature of the series: MTS antiproliferative assay K562-TAX. It counts as cell-based, human. The settings on record: Homo sapiens, K562-Tax, 72 h, 72 h of incubation; paclitaxel-resistant.
Text: as §2, §3, §4

The next series deals with CCRF-CEM. As to the kind of experiment: MTS antiproliferative assay CCRF-CEM. It is filed as cell-based. The following applies: Homo sapiens, 72 h of incubation.
Text: as §2, §3, §4

Another series relates to K562. Nature of the series: MTS antiproliferative assay K562. The following applies: Homo sapiens, K562, 72 h, 72 h of incubation. It is filed as cell-based, human.
Text: as §2, §3, §4

In a further series the test system is CEM-DNR. Nature of the series: MTS antiproliferative assay CEM-DNR. The settings on record: Homo sapiens, 72 h of incubation, daunorubicin-resistant. It counts as cell-based.
Text: as §2, §3, §4

The subject of a further series is BMDM macrophages. Nature of the series: MTT cytotoxicity on BMDM macrophages. It counts as cell-based. The settings on record: Mus musculus, 72 h.
Text: as §1, with “T. cruzi epimastigotes MHOM/VE/92/YBM venezuelan strain” for “Vero cells”, “used to test” for “derived from”, “anti T. cruzi in vitro studies. The strain was” for “kidney of an African green monkey, cells were”, “a modified LIT medium” for “Dulbecco’s Modified Eagle’s Medium (DMEM), supplemented”, “fetal bovine serum (FBS). Mouse bone marrow was used to obtain BMDM macrophages. Mouse fibroblast-conditioned medium L-929 was used for the differentiation” for “heat-inactivated FBS”, “maintenance of BMDM macrophages.” for “penicillin-streptomycin solution 1% at 37 °C, 5% CO2 atmosphere and > 95% humidity.”

A further series deals with HCT-116. Nature of the series: MTS antiproliferative assay HCT116. It is filed as cell-based. The settings on record: Homo sapiens, 72 h of incubation.
Text: as §2, §3, §4

A further series relates to U2OS. Nature of the series: MTS antiproliferative assay U2OS. The following applies: Homo sapiens, 72 h of incubation. It counts as cell-based.
Text: as §2, §3, §4

A word on the EC50: it is the concentration that produces a half-maximal response. `O=C(Cn1ccnc1[N+](=O)[O-])NCc1ccccc1` [Bnz, benznidazole, reference compound]: the “SIV/Tc selectivity index on T. cruzi/VERO” value in [1] (SI = CC50/EC50) is recorded as 4. The EC50 in series [1] (Trypanosoma cruzi) worked out at 30 ± 0.7 µM; with VERO cells, 120 ± 2.3 µM.
As a reminder, the IC50 is the point on the concentration scale where inhibition reaches its midpoint. With `O=C1/C(=C/c2cccnc2Oc2ccccc2)CCc2ccccc21` [Compound 8, (E)-3,4-Dihydro-2-[(2-phenoxypyridin-3-yl)methylene]naphthalen-1(2H)-one], the EC50 was no more than 60 µM in series [2] (72 h, promastigotes); 57.6 ± 1.62 µM in series [2] (promastigotes, 72 h); greater than 60 µM in series [1] (Trypanosoma cruzi); greater than 1000 µM with BMDM macrophages; greater than 100 µM in the series with VERO cells. Also, the IC50 with HCT116p53−/− was greater than 50 µM; with BJ, greater than 50 µM; with MRC-5, greater than 50 µM; in the series on A549 it was greater than 50 µM; in the series on K562-TAX, 20 ± 2.16 µM; in the series with CCRF-CEM, 4.15 ± 0.74 µM. The 50% inhibitory concentration (IC50) with K562 was greater than 50 µM; in the series with CEM-DNR, 38.2 ± 6.26 µM; with HCT-116, greater than 50 µM; in the series with U2OS, greater than 50 µM.
As for `CCCCCCCCCCCCCCCCOP(=O)([O-])OCC[N+](C)(C)C` [Mil, miltefosine, reference compound], the EC50 in series [2] (72 h, promastigotes) is 25 ± 1.4 µM; with BMDM macrophages, 125 ± 4.7 µM. In addition, in series [2] (SI = CC50/EC50), the “SIB/Lb selectivity index on L. braziliensis/BMDM” value is given as 5.
On to `COc1cccc2c1CC/C(=C\c1cccnc1Oc1ccc(Cl)cc1)C2=O` [Compound 21, (E)-2-{[2-(4-Chlorophenoxy)pyridin-3-yl]methylene}-3,4-dihydro-5-methoxynaphthalen-1(2H)-one], for which the concentration for a half-maximal effect (EC50) was 9.24 ± 1 µM in [2] (72 h, promastigotes); less than 60 µM in series [1] (Trypanosoma cruzi); 35.5 ± 10 µM in [1]; greater than 1000 µM with BMDM macrophages; 103 ± 15 µM with VERO cells. Besides, the IC50 in the series with HCT116p53−/− is 31.1 ± 4.45 µM; in the series on BJ it was greater than 50 µM; in the series with MRC-5, greater than 50 µM; in the series on A549, 46.9 ± 4.02 µM; with K562-TAX it was 23.6 ± 8.79 µM; in the series on CCRF-CEM it was 10.4 ± 2.46 µM. Further, the half-maximal inhibitory concentration (IC50) with K562 worked out at 32.7 ± 3.67 µM; in the series on CEM-DNR it was 35.8 ± 4.25 µM; in the series with HCT-116, 38.1 ± 5.44 µM; with U2OS, 46.8 ± 4.26 µM.
`COc1cccc2c1CC/C(=C\c1cccnc1Oc1ccccc1)C2=O` [Compound 9, (E)-3,4-Dihydro-5-methoxy-2-[(2-phenoxypyridin-3-yl)methylene]naphthalen-1(2H)-one]: the concentration giving a half-maximal response (EC50) is no less than 60 µM in series [2] (72 h, promastigotes); greater than 60 µM in series [2] (promastigotes, 72 h); greater than 60 µM in series [1] (Trypanosoma cruzi); greater than 1000 µM in the series with BMDM macrophages; less than 100 µM in the series with VERO cells. The IC50 was 20.2 ± 3.1 µM in the series on HCT116p53−/−; greater than 50 µM with BJ; greater than 50 µM with MRC-5; 30 ± 5.83 µM in the series with A549; 24.1 ± 6.02 µM with K562-TAX; 6.15 ± 0.84 µM in the series with CCRF-CEM. Further, the IC50 stood at 19.6 ± 3.67 µM in the series on K562, 26.3 ± 7.95 µM with CEM-DNR, 24.8 ± 3.77 µM in the series on HCT-116 and 19.6 ± 3.65 µM in the series with U2OS.
In general, melting point refers to the temperature of the solid-liquid transition. In turn, `COc1cccc2c1CC/C(=C\c1cccnc1Oc1ccc(F)cc1)C2=O` [Compound 13, (E)-2-{[2-(4-Fluorophenoxy)pyridin-3-yl]methylene}-3,4-dihydro-5-methoxynaphthalen-1(2H)-one] had a melting point of 154 to 156 °C. This compound also gave an EC50 in series [2] (72 h, promastigotes) greater than 100 µM. The same compound displayed a half-inhibitory concentration (IC50) in the series on HCT116p53−/− of 23.5 ± 1.5 µM. The same compound registered an IC50 in the series with BJ greater than 50 µM. This compound yielded an IC50 with MRC-5 greater than 50 µM. The compound further displayed an IC50 in the series with A549 of 28.4 ± 2.14 µM. This compound also had an EC50 in [1] (Trypanosoma cruzi) greater than 100 µM. Moreover, 39.3 ± 5.4 µM corresponded to half-maximal inhibition in the series with K562-TAX (IC50). In addition, in the series with CCRF-CEM, inhibition was half-maximal at 6.07 ± 0.59 µM (IC50). This compound also returned a half-maximal inhibitory concentration (IC50) with K562 of 23.4 ± 2.31 µM. Moreover, in the series with CEM-DNR, the IC50 stood at 37.3 ± 3.13 µM. In the series with HCT-116, this compound showed an IC50 of 27.2 ± 2.44 µM. Also, the half-inhibitory concentration (IC50) in the series on U2OS came out at 21 ± 2.21 µM.
